These results are taken from patent US7579167B2, “Polypeptides involved in the biosynthesis of spiramycins, nucleotide sequences encoding these polypeptides and applications thereof” (Aventis Pharma S., priority 2002, dated 2009).

The conditions of assay [1]: comparison with spiramycins II and III; cited from earlier work.

Text for Micrococcus luteus: The strain of Micrococcus luteus used is a strain naturally sensitive to spiramycin but resistant to congocidine.

For the compound `CO[C@@H]1[C@@H](O[C@@H]2O[C@H](C)[C@@H](O[C@H]3C[C@@](C)(O)[C@@H](O)[C@H](C)O3)[C@H](N(C)C)[C@H]2O)[C@@H](CC=O)C[C@@H](C)[C@@H](O[C@H]2CC[C@H](N(C)C)[C@@H](C)O2)/C=C/C=C/C[C@@H](C)OC(=O)C[C@H]1O` [spiramycin I], the “antibiotic activity compared with spiramycins II and III” value in assay [1] is listed as “clearly greater”.
In the case of `CC1CC=CC=CC(OC2CCC(N(C)C)C(C)O2)C(C)CC(CC=O)C(OC2OC(C)C(OC3CC(C)(O)C(O)C(C)O3)C(N(C)C)C2O)C(O)C(O)CC(=O)O1` (stereo not drawn) [spiramycin without the methyl group], the “activity compared with the spiramycin of origin with the methyl group at position 4 (less active by a factor)” value in the assay on Micrococcus luteus (microbiological test on a sensitive strain of M. luteus) came out at 10. Also, the “microbiological activity compared with the unmodified spiramycin (weaker)” value in the assay with Micrococcus luteus (tested on the microorganism Micrococcus luteus, relative to unmodified spiramycin) worked out at 10 fold.
